Measurements published in ChEMBL document CHEMBL3301361, “Experimental in vitro DMPK and physicochemical data on a set of publicly disclosed compounds”.

Assay: physchem
Conditions: octan-1-ol/water, pH 7.4
Work on `CN(CCO)C(=O)c1ccc([C@H](c2cccc(NC(=O)C3CC3)c2)N2CCN(Cc3ccc(F)cc3)CC2)cc1` yielded a logD of 3.38. Work on `CCCCCCCCCC(=O)N[C@@H](Cc1c[nH]c2ccccc12)C(=O)N[C@H](CC(N)=O)C(=O)N[C@@H](CC(=O)O)C(=O)N[C@@H]1C(=O)NCC(=O)N[C@@H](CCCN)C(=O)N[C@@H](CC(=O)O)C(=O)N[C@H](C)C(=O)N[C@@H](CC(=O)O)C(=O)NCC(=O)N[C@H](CO)C(=O)N[C@@H]([C@H](C)CC(=O)O)C(=O)N[C@@H](CC(=O)c2ccccc2N)C(=O)O[C@@H]1C` yielded a logD of -0.94. In the case of `Cc1ccc(CN2C(=O)CCSc3ccc(Cl)cc32)cc1`, the logD is reported as 3.7. `O=C(NCc1ccncn1)c1ccc(Oc2ccc(C#C[C@@]3(O)CN4CCC3CC4)cc2)cc1` gave a logD of 1.77. `CN(C)CC/C=C1\c2ccccc2Sc2ccc(Cl)cc21` showed a logD of 3.42. With `CNC1=Nc2ncccc2C(c2cc[nH]c2)=NC1c1cccs1` (stereo not given) the logD was 1.73. Compound `O=C(N[C@H]1CN2CCC1CC2)c1ccc(-c2ccccn2)s1` has a logD of 0.7. `CCCNC(=O)c1nnc2c(-c3cc(C)ccc3OC)cccc2c1N` gave a logD of 3.99. `CCc1cc2c(s1)-n1c(C)nnc1CN=C2c1ccccc1Cl` [ETIZOLAM] gave a logD of 2.52. `O=C(Oc1ccc(Br)cc1)N1CCN2CCC1CC2` [SSR180711] showed a logD of 1.58. Work on `COC(=O)N1CCN(C(=O)Cc2ccc(Cl)c(Cl)c2)[C@@H](CN2CCCC2)C1` yielded a logD of 1.97. `CCN(CC)C(=O)c1ccc(C2=CC3(CCNCC3)Oc3ccccc32)c(O)c1` [ADL-5747 FREE BASE] gave a logD of 0.77. `Cc1c(O[C@H]2C[C@H]3CC[C@@H](C2)N3Cc2ccccc2)cccc1C(N)=O` gave a logD of 1.6. Compound `C[C@@H]1NC(C)(C)CO[C@@]1(O)c1cccc(Cl)c1` [RADAFAXINE] has a logD of 1.69. `Oc1ccnc2ccccc12` showed a logD of 0.8. In the case of `CC(=O)N(C)c1ccccc1`, the logD is reported as 1.1. Work on `COc1cc(F)ccc1-c1cncc(C2CCCN2)c1` (stereo not given) yielded a logD of 1.1. Compound `CC(N)Cc1c[nH]c2ccc(OCc3cccs3)cc12` (stereo not given) [BW-723C86] has a logD of 0.48.

Same assay, conditions: octan-1-ol/water, pH 7.4, LogD7.4
Compound `N#Cc1cnn2c(N)cc(-c3cccs3)nc12` has a logD of 2.3. `CCC(c1nc2ccsc2c(=O)n1Cc1ccc(OC)cc1)N(CCCN)C(=O)c1ccc(C)cc1` (stereo not given) showed a logD of 2.15. `c1ccc(C2OC3(CCNCC3)c3ccccc32)cc1` (stereo not given) gave a logD of 0.75. Work on `CC1(C)Cc2c(-c3ccccc3)c(-c3ccc(Cl)cc3)c(CC(=O)O)n2C1` [LICOFELONE] yielded a logD of 3.07. `Nc1ccc2c(c1)-c1ccccc1C(=O)C2=O` showed a logD of 2.39. `Nc1nc2ccc(-c3cccc(O)c3)cc2s1` showed a logD of 3.1. Compound `O=C(c1cc2cc(Cl)ccc2[nH]1)N1CCNCC1` has a logD of 1.65. With `Cc1cc(C)c2c(n1)sc1c(N3CCN(C)CC3)ncnc12` the logD was 3.2. Compound `CC(C)C(NC(=O)Cn1c(-c2ccccc2)ccc(NC(=O)NCc2cccnc2)c1=O)C(=O)C(F)(F)F` (stereo not given) has a logD of 2.84. `COc1c(C#N)cc2ccccc2c1C(=O)N(C)C[C@@H](CCN1CCC(N2CCCNC2=O)CC1)c1ccc(Cl)c(Cl)c1` showed a logD of 3. Work on `Cc1ccc(S(=O)(=O)Nc2ccc(/C=C/C(=O)Nc3ccccc3N)cc2)cc1` yielded a logD of 2.82. Compound `Oc1c(I)cc(I)c2cccnc12` [IODOQUINOL] has a logD of 2.19. `NS(=O)(=O)c1nc2ccccc2s1` showed a logD of 1.35. Work on `Cc1ccc(C(=O)C(C)CN2CCCCC2)cc1` (stereo not given) [TOLPERISONE] yielded a logD of 1.65. For `Cc1nc(C(=O)N2CCCC3(CCN(Cc4ccccc4)CC3)C2)cs1`, the logD was 0.24. In the case of `COC(=O)CCCC(=O)Nc1ccc2c(c1)-c1ccccc1C(=O)C2=O`, the logD is reported as 2.96. `CC(=O)NC[C@H]1CN(c2ccc(N3Cc4cccnc4C3)c(F)c2)C(=O)O1` showed a logD of 2.88. Compound `COC(=O)Nc1cnc(-c2ccc(F)cc2)n(CC(=O)NC(C(=O)C(F)(F)F)C(C)C)c1=O` (stereo not given) has a logD of 1.82. Compound `O=C1Nc2ccccc2C1(O)c1ccccc1` (stereo not given) has a logD of 1.71. For `COc1ccc(NC(=O)c2ccc(-c3ccncc3)c(C)c2)cc1N1CCN(C)CC1`, the logD was 2.56. In the case of `CNC(=O)C1(N2CCCCC2=O)CCN(CC[C@H](CN(C)C(=O)c2cc(C#N)cc3ccccc23)c2ccc(Cl)c(Cl)c2)CC1`, the logD is reported as 2.5. `CC(C)C(NC(=O)Cn1c(-c2cccs2)ncc(N)c1=O)C(=O)C(F)(F)F` (stereo not given) showed a logD of 0.68. Work on `C[C@@H]1CN(C(=O)OC(C)(C)C)CCN1c1ncc(OCc2ccc(S(C)(=O)=O)cn2)cn1` yielded a logD of 3. `CC(=O)N1CCOc2cc(COc3ccccc3)cnc21` showed a logD of 2.8. `CCCNc1nc(N2CCC[C@@H](CC(=O)O)C2)ccc1C(=O)NC1CCCCC1` gave a logD of 2.33. `NCC(O)(c1ccccc1)c1ccccc1` gave a logD of 0.9. For `CN(C)CCCNC(=O)c1nc(Cl)c(N)nc1N`, the logD was -1. Compound `COC[C@@H](c1ccc(C(F)(F)F)cc1)N1CCN(C2(C)CCN(C(=O)c3c(C)ncnc3C)CC2)C[C@@H]1C` [VICRIVIROC] has a logD of 2.7. For `Cc1ccc(-c2[nH]cnc2C)cc1NC(=O)c1ccc(OCc2ccccn2)cc1`, the logD was 2.87. Work on `COc1cc(CCc2cc(Nc3ccnc(NCc4ccccn4)n3)[nH]n2)cc(OC)c1` yielded a logD of 3.5. Compound `CC(C)C[C@H](N)c1nnc(S(=O)(=O)Cc2ccc(F)cc2)o1` has a logD of 1.11. For `CN1C(=O)CC(C)(CCc2cccc(-c3ccccc3)c2)N=C1N` (stereo not given), the logD was 2.03. With `COc1cc(N2CCN(C(C)=O)CC2)ccc1Nc1ncc(Br)c(-c2cnc3ccccn23)n1` the logD was 3.7. In the case of `O=C(Cc1ccccc1)Nc1nccs1`, the logD is reported as 2.5. `Nc1n[nH]cc1-c1cc(C(F)(F)F)ccc1Oc1cc(F)c(S(=O)(=O)Nc2cscn2)cc1Cl` gave a logD of 2.65. `Cc1c(Cl)ccc(OC2CCN(C[C@H](O)CNC(=O)c3c[nH]c(=O)c4cc(S(C)(=O)=O)ccc34)CC2)c1Cl` gave a logD of 2.83. In the case of `CCCS(=O)(=O)c1ccc(C(CNS(=O)(=O)c2ccc(C(F)(F)F)cc2)N2CCCCCC2)cc1` (stereo not given), the logD is reported as 3.32. With `N#C/C(=C(/N)Sc1ccc(N)cc1)c1ccccc1C(F)(F)F` the logD was 3.3. Compound `C1CCc2c(c3c(N4CCCC4)nc(N4CCCC4)nc3n2CCN2CCOCC2)C1` has a logD of 3.6. `Nc1c2c(nc3ccc(Br)cc13)N(c1ccccc1)CC2` showed a logD of 3.12. With `O=C(Nc1ccc(N2CCOCC2)nc1)c1nnc(Nc2ccc(F)c(F)c2)o1` the logD was 2.9. Work on `COc1cc(N2CC[C@@H](N(C)C)C2)c2[nH]c(C(=O)Nc3ccc(N4CCOCC4)cc3)cc(=O)c2c1` yielded a logD of 2.7. With `Cn1c(N)nc(CCc2ccc3ccccc3c2)cc1=O` the logD was 2.7. Work on `O=Cc1ccccc1B(O)O` yielded a logD of 0.83. `COc1ccc(C(=O)Nc2cccc(NC(=O)c3ccc(OC)c(OC)c3)n2)cc1OC` gave a logD of 3.5. For `COc1ccc(-c2c(C)c3ccc(OC)cc3oc2=O)cc1`, the logD was 3.31. `Cc1cc2n[nH]c(=O)n2c2cc(-c3cccnc3)ccc12` showed a logD of 2.72. `NCc1nc2ccccc2[nH]1` gave a logD of 0.4. `CC(C)(C)C(=O)NCc1ccc(NC(=O)N2CCCC(O)(c3ccc(Cl)c(Cl)c3)C2)cc1` (stereo not given) showed a logD of 3.93. For `CN(C)CCN(Cc1ccccc1)c1ccccn1` [TRIPELENNAMINE], the logD was 1.28. For `COc1cc(N2CCN(C(C)=O)CC2)ccc1Nc1ncc(Cl)c(-c2cnc3c(F)cc(F)cn23)n1`, the logD was 3.2. With `COCCC(NC(=O)C1(N)CCN(c2ncnc3[nH]ccc23)CC1)c1ccc(Cl)cc1` (stereo not given) the logD was 2.95. Work on `CC(Oc1c(Cl)cccc1Cl)C1=NCCN1` (stereo not given) [LOFEXIDINE] yielded a logD of 0.48. `CCCN(CCC)S(=O)(=O)c1ccc(C(=O)O)cc1` [PROBENECID] showed a logD of 0.03. Compound `CC#Cc1ccnc(-c2cccc([C@@]3(c4cc(C)c(=O)n(CC)c4)N=C(N)c4c(F)cccc43)c2)c1` has a logD of 4.4. `O=C(NCc1ccco1)c1ccc2[nH]c(COc3ccc(C45CC6CC(CC(C6)C4)C5)cc3)nc2c1` gave a logD of 4. Compound `CC1(c2ccc(Cl)c(Cl)c2)CC(=O)NC(N)=N1` (stereo not given) has a logD of 1.59.
